pIC50: −log10 of the molar value.
How the values were obtained:
[1] = test system: A498 human renal carcinoma cell strain; assay: In vitro anti-proliferation of tumor cells (CCK-8), A498; type: cell-based; details: A498, 72 hours
Method: (§1) Experimental Example 2: Determination of the Compounds According to the Present Invention for IC50 of the In Vitro Anti-Proliferation of Tumor Cells
A498 human renal carcinoma cell strain (purchased from Shanghai Institute of Cell Biology, Chinese Academy of Sciences);
(§2) Preparation of a compound: the compound was diluted with DMSO to a final concentration of 10 mM.
(§3) a) Cells in logarithmic growth phase were collected, counted, and re-suspended in complete medium. The concentration of cells was adjusted to a suitable concentration (determined depending on the result of optimization experiment of cell density), and the cells were seeded to a 96-well plate at 100 μl cell suspension per well. The cells were incubated in an incubator at 37° C., 100% relative humidity, 5% CO2 for 24 hours.
(§4) b) A test compound was diluted with the culture medium to 500 μM, and then gradient dilution was performed for 8 times. Cells were added at 25 μl/well. The final concentrations of the compound was in a range from 100 μM and 0 μM, 4-fold diluted, including 10 concentrations.
(§5) c) The cells were incubated in an incubator at 37° C., 100% relative humidity, 5% CO2 for 72 hours.
(§6) d) The culture medium was withdraw and discarded, the complete medium containing 10% CCK-8 was added, and then the cells were incubated in an incubator at 37° C. for 2-4 hours.
(§7) IC50 curve was fitted and IC50 value was calculated by professional software GraphPad Prism 5.0.
(§8) In the experiment, the compounds according to the present invention were determined for their IC50 values of in vitro anti-proliferation of tumor cell strains. The final concentrations of the compounds was in a range from 100 μM and 0 μM, 4-fold diluted, including 10 concentrations.

[2] = test system: MDA-MB-231 human mammary cancer cell strain; assay: In vitro anti-proliferation of tumor cells (CCK-8), MDA-MB-231; type: cell-based
Method: as §1
MDA-MB-231 human mammary cancer cell strain (purchased from Shanghai Institute of Cell Biology, Chinese Academy of Sciences);
as §2, §3, §4, §5, §6, §7, §8

[3] = test system: NCI-H460 Human large cell lung cancer cell strain; assay: In vitro anti-proliferation of tumor cells (CCK-8), NCI-H460; type: cell-based; details: NCI-H460, 72 hours
Method: as §1
NCI-H460 Human large cell lung cancer cell strain (purchased from Shanghai Institute of Cell Biology, Chinese Academy of Sciences);
as §2, §3, §4, §5, §6, §7, §8

[4] = test system: HCT116 human colon cancer cell strain; assay: In vitro anti-proliferation of tumor cells (CCK-8), HCT-116; type: cell-based; details: HCT-116, 72 hours
Method: as §1
HCT116 human colon cancer cell strain (purchased from Shanghai Institute of Cell Biology, Chinese Academy of Sciences);
as §2, §3, §4, §5, §6, §7, §8

[5] = test system: SK-OV-3 human ovarian cancer cell strain; assay: In vitro anti-proliferation of tumor cells (CCK-8), SK-OV-3; type: cell-based; details: SK-OV-3, 72 hours
Method: as §1
SK-OV-3 human ovarian cancer cell strain (purchased from Shanghai Institute of Cell Biology, Chinese Academy of Sciences);
as §2, §3, §4, §5, §6, §7, §8

[6] = test system: MiaPaCa-2 human pancreatic cancer cell strain; assay: In vitro anti-proliferation of tumor cells (CCK-8), MiaPaCa-2; type: cell-based; details: MIA PaCa-2, MiaPaCa-2, 72 hours
Method: as §1
MiaPaCa-2 human pancreatic cancer cell strain (purchased from American ATCC);
as §2, §3, §4, §5, §6, §7, §8

Pharmacokinetics in mice = type: in vivo; details: female, plasma, CD-1 mouse
Method: Administration route: intravenous injection (IV); per os (PO).
Fasting condition: free access to water, no fasting.
The mice were weighed before administration, and the administration volume was calculated based on their body weights (IV group: 4 mL/kg; PO group: 10 mL/kg).
Administration route and dose: Intravenous (IV) group: 1 mg/kg; Oral (PO) group: 5 mg/kg.
Animal grouping: 3 mice/group, an IV group and a PO group for each test compound.
After administration, 30 μL whole blood was collected from rim of the eyes of mice in the IV group at each pre-determined time point (5 min, 15 min, 30 min, 1 h, 2 h, 4 h, 8 h, 24 h), and 30 μL whole blood was collected from rim of the eyes of mice in the PO group at each pre-determined time point (15 min, 30 min, 1 h, 2 h, 4 h, 8 h, 24 h). The whole blood was centrifuged (6,000 rpm, 5 min) to get blood plasma. All the blood plasma samples were stored in a refrigerator of −80° C. for further analysis.
Conditions of LC/MS/MS was as follows:
Pharmacokinetic parameters were estimated according to non-compartment model (calculated by WinNonlin software): […]
IV paramater: t1/2 (hr); C0 (ng/mL); AUClast (hr*ng/mL); AUCInf (hr*ng/mL); AUC Extr (%); Vz (L/kg); Vss (L/kg); CL (mL/min/kg); MRT (hr).
PO parameter: t1/2 (hr); tmax (hr); Cmax (ng/mL); AUClast (hr*ng/mL); AUCInf (hr*ng/mL); AUC Extr (%); MRT (hr); AUC/D (hr*mg/mL); F (%).

[7] = test system: HL-60 human acute myeloid leukemia cell strain; assay: In vitro anti-proliferation of tumor cells (CCK-8), HL-60; type: cell-based; details: HL-60, 72 hours
Method: as §1
HL-60 human acute myeloid leukemia cell strain (purchased from Shanghai Institute of Cell Biology, Chinese Academy of Sciences);
as §2, §3, §4, §5, §6, §7, §8

[8] = test system: 786-O human renal clear cell carcinoma cell strain; assay: In vitro anti-proliferation of tumor cells (CCK-8), 786-O; type: cell-based; details: 786-0, 72 hours
Method: as §1
786-O human renal clear cell carcinoma cell strain (purchased from Shanghai Institute of Cell Biology, Chinese Academy of Sciences);
as §2, §3, §4, §5, §6, §7, §8

[9] = test system: HepG2 human liver cancer cell strain; assay: In vitro anti-proliferation of tumor cells (CCK-8), HepG2; type: cell-based; details: HepG2, 72 hours
Method: as §1
HepG2 human liver cancer cell strain (purchased from Shanghai Institute of Cell Biology, Chinese Academy of Sciences);
as §2, §3, §4, §5, §6, §7, §8

VEGFR2 = VEGFR2 (Homo sapiens (Human), UniProt P35968); assay: Inhibitory activity of VEGFR2 kinase (HTRF KinEASE-TK kit); type: biochemical
Method: HTRF®KinEASE™-TK kit (Cat.62TKOPEC, Cisbio);
VEGFR2 (Cat: k2643, Sigma);
2.1 Preparation of VEGFR2 Kinase Reagent
1× kinase buffer: 1 mL 1× kinase buffer contained 200 μL 5× kinase buffer (Invitrogen), 5 μL, 1M MgCl2, 1 μL 1M DTT, 1 μL 1M MnCl2, and 793 μL ddH2O;
5×TK substrate-biotin and ATP working fluid: as the concentrations of TK substrate-biotin and ATP, please refer to Table 1. TK substrate-biotin and ATP were diluted with 1× kinase buffer to 5 folds of the reaction concentrations;
5× kinase working fluid: as the concentration of VEGFR2 kinase, please refer to Table 1. 5× kinase working fluid was prepared with 1× Kinase buffer;
4× Sa-XL665 working fluid: as the concentration of Sa-XL665 (Cisbio) in the reaction, please refer to Table 1. The 4× Sa-XL665 working fluid was prepared with assay buffer (Cisbio);
4×TK Ab-cryptate working fluid: TK Ab-Cryptate (Cisbio) was 100-fold diluted with assay buffer (Cisbio), as working fluid;
Experimental Procedure of HTRF KinEASE TK Kit
After all the reagents were prepared as described above, the reagents except for enzymes were equilibrated to room temperature, then adding samples were performed.
TK substrate-biotin, ATP, VEGFR2 kinase and a compound at a certain concentration were reacted in 1× kinase buffer at room temperature for 20 minutes. […] To all the reaction wells, 5 μl 4× Sa-XL665 working fluid and 5 μl 4×TK Ab-cryptate working fluid were added. After reacting at room temperature for 1 hours, fluorescence signal (excited at 320 nm, emitted at 665 nm, 615 nm) was detected by ENVISION detector (Perkinelmer). Based on the full-active well and the background signal well, the inhibition rate for each well was calculated, and the average value was used for duplicate wells. The half maximal inhibitory concentration (IC50) for each test compound was fitted by professional software Graphpad PRISM 5.0.
2.3 Data Analysis Emission light ratio (ER)=665 nm emission signal/615 nm emission signal Inhibition rate=(ERpositive−ERsample)/(ERpositive−ERnegative)*100%
HTRF KinEASE TK kit was used to determine the IC50 value of a compound for kinase VEGFR2. The final concentration of the compound started from 100 μM, and 4-fold gradient dilution was carried out to provide 10 concentrations. Duplicate wells were used for each concentration. The final concentration of DMSO was controlled to 1% in the reaction system.

Sequence of VEGFR2 (P35968 20-1356): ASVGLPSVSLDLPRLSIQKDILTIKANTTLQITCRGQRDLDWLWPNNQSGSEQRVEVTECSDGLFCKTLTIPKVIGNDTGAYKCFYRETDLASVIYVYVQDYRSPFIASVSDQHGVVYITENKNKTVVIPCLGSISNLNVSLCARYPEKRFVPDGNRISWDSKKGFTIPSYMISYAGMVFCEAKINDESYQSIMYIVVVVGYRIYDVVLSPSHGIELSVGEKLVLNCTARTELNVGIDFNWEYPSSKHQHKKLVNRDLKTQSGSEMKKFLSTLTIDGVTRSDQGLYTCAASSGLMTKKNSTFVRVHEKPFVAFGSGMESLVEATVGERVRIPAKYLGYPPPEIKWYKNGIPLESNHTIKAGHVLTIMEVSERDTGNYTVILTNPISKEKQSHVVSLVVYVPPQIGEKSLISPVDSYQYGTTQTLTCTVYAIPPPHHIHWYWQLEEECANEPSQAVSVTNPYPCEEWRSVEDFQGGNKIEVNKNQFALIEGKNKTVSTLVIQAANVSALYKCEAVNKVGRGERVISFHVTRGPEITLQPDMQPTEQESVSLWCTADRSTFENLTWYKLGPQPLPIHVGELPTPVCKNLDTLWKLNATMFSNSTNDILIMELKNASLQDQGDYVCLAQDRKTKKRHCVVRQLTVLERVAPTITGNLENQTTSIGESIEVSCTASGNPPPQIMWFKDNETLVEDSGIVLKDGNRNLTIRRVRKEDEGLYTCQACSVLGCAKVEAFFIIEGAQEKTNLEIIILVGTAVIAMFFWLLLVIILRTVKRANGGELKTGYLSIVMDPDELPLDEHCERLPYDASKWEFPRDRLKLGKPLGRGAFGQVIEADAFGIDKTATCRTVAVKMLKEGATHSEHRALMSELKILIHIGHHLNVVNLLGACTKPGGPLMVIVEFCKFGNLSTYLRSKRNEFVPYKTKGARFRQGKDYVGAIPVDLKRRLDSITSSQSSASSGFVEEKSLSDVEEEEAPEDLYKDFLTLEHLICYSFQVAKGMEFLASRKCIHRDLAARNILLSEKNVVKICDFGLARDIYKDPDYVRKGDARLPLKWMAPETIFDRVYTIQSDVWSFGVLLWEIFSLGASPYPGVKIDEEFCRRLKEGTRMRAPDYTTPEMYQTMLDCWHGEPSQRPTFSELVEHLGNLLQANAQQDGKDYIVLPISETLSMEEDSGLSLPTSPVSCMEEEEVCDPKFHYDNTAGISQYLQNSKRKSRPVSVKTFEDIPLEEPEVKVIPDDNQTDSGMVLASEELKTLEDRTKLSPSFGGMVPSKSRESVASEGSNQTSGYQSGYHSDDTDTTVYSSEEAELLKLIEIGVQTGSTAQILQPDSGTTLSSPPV

pIC50 [1]: 5.31
pIC50 ([2]; Homo sapiens, MDA-MB-231, 72 hours, CCK-8): 5.55
IC50 as fold of that of Sorafenib ([2]; MDA-MB-231 cell line): 0.28 fold
pIC50 [3]: 6.03
pIC50 [4]: 5.56
pIC50 [5]: 5.15
pIC50 [6]: 5.69
bioavailability (Pharmacokinetics in mice; PO 5 mg/kg vs IV 1 mg/kg, read-out: F (oral bioavailability)): 90.3%
AUC(0-t) (Pharmacokinetics in mice; PO 5 mg/kg, average of three mice, read-out: AUClast (area under the curve)): 39600 ng·h/mL
Cmax (Pharmacokinetics in mice; PO 5 mg/kg, average of three mice, read-out: Cmax (peak concentration)): 1910 ng/mL
pIC50 [7]: 4.77
pIC50 [8]: 5.61
pIC50 [9]: 6.14
pIC50 (VEGFR2; ATP 5 μM, 20 minutes, room temperature): 7.54
inhibitory activity as fold of that of Comparative compound 2 (VEGFR2; VEGFR2 kinase): 6.6 fold
inhibitory activity as fold of that of Sorafenib (VEGFR2; VEGFR2 kinase): 3.13 fold
IC50 value as fold of that of Comparative compound 2 (VEGFR2; VEGFR2 kinase, ratio of IC50): 0.15 fold
IC50 value as fold of that of Sorafenib (free base) (VEGFR2; VEGFR2 kinase, ratio of IC50): 0.32 fold
SMILES: Cn1cc(-c2nccc(Oc3ccc(NC(=O)Nc4ccc(Cl)c(C(F)(F)F)c4)cc3)c2F)cn1 [Example 1, 1-(4-chloro-3-(trifluoromethyl)phenyl)-3-(4-(3-fluoro-2-(1-methyl-4-pyrazolyl)-pyridin-4-yl-oxy)phenyl)urea]
